Data on two compounds can be found in PubChem BioAssay (NCI).

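Dose response: 5 concentrations. Exposure: 48 h. Format: 96-well plates. Endpoint: linear interpolation; highest concentration if not reached. TGI: total growth inhibition.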

Among the test systems are 786-0 renal; A549 NSCLC; COLO 205 colon; HCC-2998 colon; HL-60(TB) leukemia; K-562 leukemia; MALME-3M melanoma; MDA-MB-231 breast; OVCAR-5 ovarian; T-47D breast; UACC-257 melanoma.
What all share (assay): DTP human tumour cell line panel, 48 h

The TGI is the concentration at which net growth stops. A low value points to more potent growth arrest. For the compound `COc1ccc(C(=O)Cn2c(C(C)=O)nc3ccccc32)cc1`, the TGI is 33.7 µM with 786-0 renal; greater than 100 µM with A549 NSCLC; 52.4 µM in the assay on COLO 205 colon; greater than 100 µM in the assay with HCC-2998 colon; greater than 43.8 µM in the assay on HL-60(TB) leukemia; greater than 100 µM with K-562 leukemia. For the same compound, the TGI in the assay on MALME-3M melanoma was greater than 100 µM; in the assay on MDA-MB-231 breast, greater than 100 µM; in the assay on OVCAR-5 ovarian, greater than 100 µM; in the assay with T-47D breast it was greater than 78.7 µM; in the assay with UACC-257 melanoma, greater than 100 µM.
Turning to `NC(N)=NS(=O)(=O)c1ccc(Nc2c3ccccc3nc3c(C(=O)NC(CO)(CO)CO)cccc23)cc1`, the TGI in the assay with 786-0 renal is 46.2 µM; in the assay with A549 NSCLC, 38.2 µM; with COLO 205 colon it was 51.7 µM; with HCC-2998 colon it was greater than 100 µM; in the assay on HL-60(TB) leukemia it was 71.4 µM; with K-562 leukemia, greater than 100 µM. For the same compound, the total growth inhibition concentration (TGI) in the assay with MALME-3M melanoma is 45.3 µM; with MDA-MB-231 breast, greater than 100 µM; in the assay on OVCAR-5 ovarian it was 65.4 µM; with T-47D breast, greater than 100 µM; with UACC-257 melanoma, greater than 100 µM.
